pEC50: −log10 of the molar value.
Legend:
[1] = molecular target: T1, full-length B-Catenin (Uniprot ID P35222) (Homo sapiens, UniProt P35222); assay: Alphascreen binding assay (beta-catenin / biotin-TCF4 10-53)
T1 construct: 65 nM full-length B-Catenin (Uniprot ID P35222)
T1 sequence (P35222 1-781): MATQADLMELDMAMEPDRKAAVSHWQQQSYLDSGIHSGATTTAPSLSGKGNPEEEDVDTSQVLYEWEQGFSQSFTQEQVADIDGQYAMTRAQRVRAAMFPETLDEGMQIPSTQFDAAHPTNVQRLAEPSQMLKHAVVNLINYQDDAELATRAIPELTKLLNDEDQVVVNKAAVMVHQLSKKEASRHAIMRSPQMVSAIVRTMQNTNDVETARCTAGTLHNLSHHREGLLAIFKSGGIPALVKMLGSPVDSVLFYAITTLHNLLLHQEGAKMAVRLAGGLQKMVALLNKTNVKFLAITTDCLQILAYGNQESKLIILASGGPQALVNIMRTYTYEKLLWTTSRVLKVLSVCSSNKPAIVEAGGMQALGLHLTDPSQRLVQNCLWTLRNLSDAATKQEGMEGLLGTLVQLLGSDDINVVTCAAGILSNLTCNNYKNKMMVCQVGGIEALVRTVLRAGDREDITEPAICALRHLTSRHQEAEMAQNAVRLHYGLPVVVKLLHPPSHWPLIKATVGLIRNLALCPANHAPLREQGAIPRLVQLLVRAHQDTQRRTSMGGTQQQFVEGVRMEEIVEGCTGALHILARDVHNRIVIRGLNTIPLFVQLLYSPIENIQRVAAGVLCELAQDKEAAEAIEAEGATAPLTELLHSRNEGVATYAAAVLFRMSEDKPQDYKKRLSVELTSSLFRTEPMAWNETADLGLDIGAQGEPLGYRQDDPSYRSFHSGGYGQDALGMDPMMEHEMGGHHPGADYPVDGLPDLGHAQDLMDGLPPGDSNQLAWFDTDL
Summary of the method: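 AlphaScreen (Ni-chelate beads) competition in 50 mM Tris pH 8.0, 250 mM NaCl with detergents and 0.1% BSA. Peptide titrated 10 uM–5 nM against 65 nM human β-catenin bound to 10 nM biotinylated TCF4 10-53, 15 min then 60 min with beads, both at 20 °C; 1:1 Hill-slope fit.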

CHI Log D procedure = format: physicochemical; settings: pH 7.4

pEC50 [1]	CHI Log D (CHI Log D procedure)	Structure (SMILES)
5.46	2.074	CC(=O)N1CCC[C@]12CC=CCCCC1(CCCC=CCCCCCC[C@@](C)(C(=O)N[C@@H](Cc3ccccc3)C(=O)N[C@@H](Cc3c[nH]c4ccccc34)C(=O)N[C@@H](CCC(N)=O)C(N)=O)NC(=O)[C@H](C(C)C)NC(=O)[C@H](Cc3ccc(C(F)(F)F)cc3)NC(=O)[C@H](C)NC(=O)[C@H](C)NC(=O)[C@H](CC(=O)O)NC(=O)[C@H](CC(=O)O)NC1=O)NC(=O)[C@H](C)NC(=O)[C@H](CC(=O)O)NC2=O (stereo partly drawn) [I-240, Ac-PL3-Asp-Ala-B5-Asp-Asp-Ala-Ala-4F3MeF-Val-S8-Phe-Trp-Gln-NH2]
5.46	2.074	CC(=O)N1CCC[C@]12CC=CCCCC1(CCCC=CCCCCCC[C@@](C)(C(=O)N[C@@H](Cc3ccccc3)C(=O)N[C@@H](Cc3c[nH]c4ccccc34)C(=O)N[C@@H](CCC(N)=O)C(N)=O)NC(=O)[C@H](C(C)C)NC(=O)[C@H](Cc3ccc(C(F)(F)F)cc3)NC(=O)[C@H](C)NC(=O)[C@H](C)NC(=O)[C@H](CC(=O)O)NC(=O)[C@H](CC(=O)O)NC1=O)NC(=O)[C@H](C)NC(=O)[C@H](CC(=O)O)NC2=O (stereo partly drawn) [I-241, Ac-PL3-Asp-Ala-B5-Asp-Asp-Ala-Ala-4F3MeF-Val-S8-Phe-Trp-Gln-NH2]
5.31	2.098	CC(=O)N1CCC[C@]12CC=CCCCC1(CCCC=CCCCCCC[C@@](C)(C(=O)N[C@@H](Cc3ccccc3)C(=O)N[C@@H](Cc3c[nH]c4ccccc34)C(=O)N[C@@H](CCC(N)=O)C(N)=O)NC(=O)[C@H](C(C)C)NC(=O)[C@H](Cc3ccc(C(F)(F)F)cc3)NC(=O)[C@H](C)NC(=O)[C@H](C)NC(=O)[C@H](CC(=O)O)NC(=O)[C@H](CC(=O)O)NC1=O)NC(=O)[C@H](C)NC(=O)[C@H](CC(=O)O)NC2=O (stereo partly drawn) [I-242, Ac-PL3-Asp-Ala-B5-Asp-Asp-Ala-Ala-4F3MeF-Val-S8-Phe-Trp-Gln-NH2]
5.31	2.098	CC(=O)N1CCC[C@]12CC=CCCCC1(CCCC=CCCCCCC[C@@](C)(C(=O)N[C@@H](Cc3ccccc3)C(=O)N[C@@H](Cc3c[nH]c4ccccc34)C(=O)N[C@@H](CCC(N)=O)C(N)=O)NC(=O)[C@H](C(C)C)NC(=O)[C@H](Cc3ccc(C(F)(F)F)cc3)NC(=O)[C@H](C)NC(=O)[C@H](C)NC(=O)[C@H](CC(=O)O)NC(=O)[C@H](CC(=O)O)NC1=O)NC(=O)[C@H](C)NC(=O)[C@H](CC(=O)O)NC2=O (stereo partly drawn) [I-243, Ac-PL3-Asp-Ala-B5-Asp-Asp-Ala-Ala-4F3MeF-Val-S8-Phe-Trp-Gln-NH2]
5.53	3.101	CC(=O)N1CCC[C@]12CC=CCCCC1(CCCC=CCCCCCC[C@@](C)(C(=O)N[C@@H](Cc3ccccc3)C(=O)N[C@@H](Cc3c[nH]c4ccccc34)C(=O)N[C@@H](CCC(N)=O)C(N)=O)NC(=O)[C@H](C(C)C)NC(=O)[C@H](Cc3ccccc3)NC(=O)[C@H](C)NC(=O)[C@H](C)NC(=O)[C@H](Cc3cccc(C(F)(F)F)c3)NC(=O)[C@H](CC(=O)O)NC1=O)NC(=O)[C@H](C)NC(=O)[C@H](CC(=O)O)NC2=O (stereo partly drawn) [I-244, Ac-PL3-Asp-Ala-B5-Asp-3F3MeF-Ala-Ala-Phe-Val-S8-Phe-Trp-Gln-NH2]
5.40	3.01	CC(=O)N1CCC[C@]12CC=CCCCC1(CCCC=CCCCCCC[C@@](C)(C(=O)N[C@@H](Cc3ccccc3)C(=O)N[C@@H](Cc3c[nH]c4ccccc34)C(=O)N[C@@H](CCC(N)=O)C(N)=O)NC(=O)[C@H](C(C)C)NC(=O)[C@H](Cc3ccccc3)NC(=O)[C@H](C)NC(=O)[C@H](C)NC(=O)[C@H](Cc3ccc(C(F)(F)F)cc3)NC(=O)[C@H](CC(=O)O)NC1=O)NC(=O)[C@H](C)NC(=O)[C@H](CC(=O)O)NC2=O (stereo partly drawn) [I-246, Ac-PL3-Asp-Ala-B5-Asp-4F3MeF-Ala-Ala-Phe-Val-S8-Phe-Trp-Gln-NH2]
5.55	2.263	CC(=O)N1CCC[C@]12CC=CCCCC1(CCCC=CCCCCCC[C@@](C)(C(=O)N[C@@H](Cc3cccc(C(F)(F)F)c3)C(=O)N[C@@H](Cc3c[nH]c4ccccc34)C(=O)N[C@@H](CCC(N)=O)C(N)=O)NC(=O)[C@H](C(C)C)NC(=O)[C@H](Cc3ccccc3)NC(=O)[C@H](C)NC(=O)[C@H](C)NC(=O)[C@H](CC(=O)O)NC(=O)[C@H](CC(=O)O)NC1=O)NC(=O)[C@H](C)NC(=O)[C@H](CC(=O)O)NC2=O (stereo partly drawn) [I-248, Ac-PL3-Asp-Ala-B5-Asp-Asp-Ala-Ala-Phe-Val-S8-3F3MeF-Trp-Gln-NH2]
5.55	2.263	CC(=O)N1CCC[C@]12CC=CCCCC1(CCCC=CCCCCCC[C@@](C)(C(=O)N[C@@H](Cc3cccc(C(F)(F)F)c3)C(=O)N[C@@H](Cc3c[nH]c4ccccc34)C(=O)N[C@@H](CCC(N)=O)C(N)=O)NC(=O)[C@H](C(C)C)NC(=O)[C@H](Cc3ccccc3)NC(=O)[C@H](C)NC(=O)[C@H](C)NC(=O)[C@H](CC(=O)O)NC(=O)[C@H](CC(=O)O)NC1=O)NC(=O)[C@H](C)NC(=O)[C@H](CC(=O)O)NC2=O (stereo partly drawn) [I-249, Ac-PL3-Asp-Ala-B5-Asp-Asp-Ala-Ala-Phe-Val-S8-3F3MeF-Trp-Gln-NH2]
5.92	2.299	CC(=O)N1CCC[C@]12CC=CCCCC1(CCCC=CCCCCCC[C@@](C)(C(=O)N[C@@H](Cc3cccc(C(F)(F)F)c3)C(=O)N[C@@H](Cc3c[nH]c4ccccc34)C(=O)N[C@@H](CCC(N)=O)C(N)=O)NC(=O)[C@H](C(C)C)NC(=O)[C@H](Cc3ccccc3)NC(=O)[C@H](C)NC(=O)[C@H](C)NC(=O)[C@H](CC(=O)O)NC(=O)[C@H](CC(=O)O)NC1=O)NC(=O)[C@H](C)NC(=O)[C@H](CC(=O)O)NC2=O (stereo partly drawn) [I-250, Ac-PL3-Asp-Ala-B5-Asp-Asp-Ala-Ala-Phe-Val-S8-3F3MeF-Trp-Gln-NH2]
5.92	2.299	CC(=O)N1CCC[C@]12CC=CCCCC1(CCCC=CCCCCCC[C@@](C)(C(=O)N[C@@H](Cc3cccc(C(F)(F)F)c3)C(=O)N[C@@H](Cc3c[nH]c4ccccc34)C(=O)N[C@@H](CCC(N)=O)C(N)=O)NC(=O)[C@H](C(C)C)NC(=O)[C@H](Cc3ccccc3)NC(=O)[C@H](C)NC(=O)[C@H](C)NC(=O)[C@H](CC(=O)O)NC(=O)[C@H](CC(=O)O)NC1=O)NC(=O)[C@H](C)NC(=O)[C@H](CC(=O)O)NC2=O (stereo partly drawn) [I-251, Ac-PL3-Asp-Ala-B5-Asp-Asp-Ala-Ala-Phe-Val-S8-3F3MeF-Trp-Gln-NH2]
5.43	2.214	CC(=O)N1CCC[C@]12CC=CCCCC1(CCCC=CCCCCCC[C@@](C)(C(=O)N[C@@H](Cc3ccc(C(F)(F)F)cc3)C(=O)N[C@@H](Cc3c[nH]c4ccccc34)C(=O)N[C@@H](CCC(N)=O)C(N)=O)NC(=O)[C@H](C(C)C)NC(=O)[C@H](Cc3ccccc3)NC(=O)[C@H](C)NC(=O)[C@H](C)NC(=O)[C@H](CC(=O)O)NC(=O)[C@H](CC(=O)O)NC1=O)NC(=O)[C@H](C)NC(=O)[C@H](CC(=O)O)NC2=O (stereo partly drawn) [I-252, Ac-PL3-Asp-Ala-B5-Asp-Asp-Ala-Ala-Phe-Val-S8-4F3MeF-Trp-Gln-NH2]
5.43	2.214	CC(=O)N1CCC[C@]12CC=CCCCC1(CCCC=CCCCCCC[C@@](C)(C(=O)N[C@@H](Cc3ccc(C(F)(F)F)cc3)C(=O)N[C@@H](Cc3c[nH]c4ccccc34)C(=O)N[C@@H](CCC(N)=O)C(N)=O)NC(=O)[C@H](C(C)C)NC(=O)[C@H](Cc3ccccc3)NC(=O)[C@H](C)NC(=O)[C@H](C)NC(=O)[C@H](CC(=O)O)NC(=O)[C@H](CC(=O)O)NC1=O)NC(=O)[C@H](C)NC(=O)[C@H](CC(=O)O)NC2=O (stereo partly drawn) [I-253, Ac-PL3-Asp-Ala-B5-Asp-Asp-Ala-Ala-Phe-Val-S8-4F3MeF-Trp-Gln-NH2]
5.71	2.232	CC(=O)N1CCC[C@]12CC=CCCCC1(CCCC=CCCCCCC[C@@](C)(C(=O)N[C@@H](Cc3ccc(C(F)(F)F)cc3)C(=O)N[C@@H](Cc3c[nH]c4ccccc34)C(=O)N[C@@H](CCC(N)=O)C(N)=O)NC(=O)[C@H](C(C)C)NC(=O)[C@H](Cc3ccccc3)NC(=O)[C@H](C)NC(=O)[C@H](C)NC(=O)[C@H](CC(=O)O)NC(=O)[C@H](CC(=O)O)NC1=O)NC(=O)[C@H](C)NC(=O)[C@H](CC(=O)O)NC2=O (stereo partly drawn) [I-254, Ac-PL3-Asp-Ala-B5-Asp-Asp-Ala-Ala-Phe-Val-S8-4F3MeF-Trp-Gln-NH2]
5.71	2.232	CC(=O)N1CCC[C@]12CC=CCCCC1(CCCC=CCCCCCC[C@@](C)(C(=O)N[C@@H](Cc3ccc(C(F)(F)F)cc3)C(=O)N[C@@H](Cc3c[nH]c4ccccc34)C(=O)N[C@@H](CCC(N)=O)C(N)=O)NC(=O)[C@H](C(C)C)NC(=O)[C@H](Cc3ccccc3)NC(=O)[C@H](C)NC(=O)[C@H](C)NC(=O)[C@H](CC(=O)O)NC(=O)[C@H](CC(=O)O)NC1=O)NC(=O)[C@H](C)NC(=O)[C@H](CC(=O)O)NC2=O (stereo partly drawn) [I-255, Ac-PL3-Asp-Ala-B5-Asp-Asp-Ala-Ala-Phe-Val-S8-4F3MeF-Trp-Gln-NH2]

— patent US20240116985A1, “STAPLED PEPTIDES AND METHODS THEREOF” (priority 2020, published 2024)
